Legend:
Format in all cases: cell-based
CD₄ [1] = target: T1, CD₄ (Homo sapiens, UniProt P01730); assay: Percentage of CD4 still expressed in Molt 3 cells after incubation in the presence of fetal calf serum; design: percentage of CD₄ still expressed in the Molt 3 cells after incubation; endogenous in cells; host or cells: Molt 3 cells; conditions: for percentage of CD₄ still expressed in the Molt 3 cells: 60 minutes, 37°C, 84% without agent; for effect of serum concentration on the modulating action on the CD₄ receptor: conclusion in words from Table 3, FCS 1% to 5%
Experimental: Molt 3 cells (5x10⁶) were incubated with different concentrations of N-dichloroacetyl lyso GM₁ (from 1 µg/ml to 125 µg/ml) for 60 minutes at 37°C in the presence of different concentrations of fetal calf serum (FCS) (from 1% to 5%). After incubation the percentage of CD₄ expressed was shown by a specific Mab for CD₄ (T₄ Coulter Clone, Coulter Electronics, Hialeah, Florida, USA).
As a positive control, an experiment with the monosialoganglioside GM₁ was carried out under the same experimental conditions as reported for N-dichloroacetyl lyso GM₁.
The CD₄ expressed in the absence of the chemical agents during the experiment was 84%.

CD₄ [2] = target: T1, CD₄; assay: Mean fluorescence intensity of human lymphocytes stained with anti CD4 Mab after incubation with the compound in the presence of serum; design: endogenous in cells; host or cells: human lymphocytes; conditions: for Mean fluorescence intensity (% of positive control): anti CD4 Mab, serum, 37°C, one hour
Experimental: (§1) Human lymphocytes were incubated at various concentrations of the modified ganglioside N-dichloroacetyl lyso GM₁. The cells were stained using monoclonal antibodies (Mab) specific for CD₄, CD₈, CD₃ (T₄, T₈, T₃ Coulter Clone, Coulter Electronics, Hialeah, Florida, USA) and OKT₄ (Ortho Diagnostics, Raritan, New Jersey, USA), these monoclonal antibodies being coupled to fluorescein. By measuring the mean fluorescence intensity (MFI) of the labelled cell population at each concentration of N-dichloroacetyl lyso GM₁, it was possible to quantify how much N-dichloroacetyl lyso GM₁ is necessary to produce 50% inhibition of the fluorescence (I₅₀). The I₅₀ value for […] lymphocytes was 5 µM. The concentration of the composition of N-dichloroacetyl lyso GM₁ at which the fluorescence intensity measurement was 0% was resolved experimentally.
(§2) Specifically, human cells were incubated with saline solution at various concentrations of N-dichloroacetyl lyso GM₁ in the presence of serum at 37°C for one hour. The cells were then washed, incubated with suitable monoclonal antibodies, fixed with 1% formalin and analyzed by MFI after excitation at […] laser length.

CD₄ [3] = target: T1, CD₄; assay: Percentage of CD4 still expressed in Molt 3 cells after incubation in the presence of BMS serum substitute; design: percentage of CD₄ still expressed in the Molt 3 cells after incubation; endogenous in cells; host or cells: Molt 3 cells; conditions: 60 minutes, 37°C, 89% without agent
Experimental: Molt 3 cells (5x10⁶) were incubated with various concentrations of N-dichloroacetyl lyso GM₁ (from 1 µg/ml to 250 µg/ml) for 60 minutes at 37°C in the presence of BMS (BMS Serum Substitute, Biochrom. Kg. Seromed, Berlin, Germany). After incubation the percentage of CD₄ expressed was shown by a specific Mab for CD₄ (T₄ Coulter Clone, Coulter Electronics, Hialeah, Florida, USA). For a positive control, an experiment-was carried out with monosialoganglioside GM₁ under the same experimental conditions as reported for N-dichloroacetyl lyso GM₁.
Table 2 reports the percentage of CD₄ still expressed in the Molt 3 cells after incubation with different chemical molecules at different concentrations, as described in Example 1. The CD₄ expressed in the absence of the chemical agents during the experiment was 89%.

CD₃ = assay: Mean fluorescence intensity of human lymphocytes stained with anti CD3 Mab after incubation with the compound in the presence of serum; conditions: 37°C, one hour
Experimental: as §1, §2

Row | Substance | percentage of CD₄ still expressed in the Molt 3 cells (CD₄ [1]; 1μg/ml, FCS 1%) | percentage of CD₄ still expressed in the Molt 3 cells (CD₄ [1]; 1μg/ml, FCS 2%) | percentage of CD₄ still expressed in the Molt 3 cells (CD₄ [1]; 1μg/ml, FCS 5%) | percentage of CD₄ still expressed in the Molt 3 cells (CD₄ [1]; 25μg/ml, FCS 1%) | percentage of CD₄ still expressed in the Molt 3 cells (CD₄ [1]; 25μg/ml, FCS 2%) | percentage of CD₄ still expressed in the Molt 3 cells (CD₄ [1]; 25μg/ml, FCS 5%) | percentage of CD₄ still expressed in the Molt 3 cells (CD₄ [1]; 75μg/ml, FCS 1%) | percentage of CD₄ still expressed in the Molt 3 cells (CD₄ [1]; 75μg/ml, FCS 2%) | percentage of CD₄ still expressed in the Molt 3 cells (CD₄ [1]; 75μg/ml, FCS 5%) | percentage of CD₄ still expressed in the Molt 3 cells (CD₄ [1]; 125μg/ml, FCS 1%) | percentage of CD₄ still expressed in the Molt 3 cells (CD₄ [1]; 125μg/ml, FCS 2%) | percentage of CD₄ still expressed in the Molt 3 cells (CD₄ [1]; 125μg/ml, FCS 5%) | effect of serum concentration on the modulating action on the CD₄ receptor (CD₄ [1]) | percentage of CD₄ still expressed in the Molt 3 cells (CD₄ [3]; 1μg/ml) | percentage of CD₄ still expressed in the Molt 3 cells (CD₄ [3]; 5μg/ml) | percentage of CD₄ still expressed in the Molt 3 cells (CD₄ [3]; 25μg/ml) | percentage of CD₄ still expressed in the Molt 3 cells (CD₄ [3]; 125μg/ml) | further results
1 | N-dichloroacetyl lyso GM₁ [N-dichloroacetyl lyso GM1] | 70% | 73% | 77% | 44% | 55% | 64% | 47% | 50% | 55% | 30% | 49% | 50% | increased serum concentrations do not alter its modulating action on the CD₄ receptor | 75% | 74% | 47% | 13% | Mean fluorescence intensity (% of positive control) (CD₄ [2]; 2 μg/ml): 100 % of positive control; Mean fluorescence intensity (% of positive control) (CD₄ [2]; 5 μg/ml): 60 % of positive control; Mean fluorescence intensity (% of positive control) (CD₄ [2]; 10 μg/ml): 28 % of positive control; Mean fluorescence intensity (% of positive control) (CD₄ [2]; 25 μg/ml): 0 % of positive control; Mean fluorescence intensity (% of positive control) (CD₄ [2]; 50 μg/ml): 0 % of positive control; selectivity of modulation, CD₄ receptor versus CD₃ receptor (CD₄ [2]; conclusion in words from Table 1, 2 to 50 μg/ml): selectively modulates the CD₄ receptor without altering the CD₃ receptor; IC50 (CD₄ [2]; minor lymphocytes, fluorescein-coupled Mab, MFI, read-out: 50% inhibition of the fluorescence (I₅₀)): 5 µM; Mean fluorescence intensity (% of positive control) (CD₃; 2 μg/ml): 100 % of positive control; Mean fluorescence intensity (% of positive control) (CD₃; 5 μg/ml, 60 min): 100 % of positive control; Mean fluorescence intensity (% of positive control) (CD₃; 10 μg/ml, 60 min): 100 % of positive control; Mean fluorescence intensity (% of positive control) (CD₃; 25 μg/ml, 60 min): 100 % of positive control; Mean fluorescence intensity (% of positive control) (CD₃; 50 μg/ml): 100 % of positive control
2 | monosialoganglioside GM₁ [GM1, reference compound] | 82% | 84% | 85% | 80% | 83% | 81% | 50% | 80% | 83% | 10% | 25% | 72% | this modulating action disappears in the presence of serum | 88% | 81% | 52% | 0% | –

Source: patent publication EP0455560A2, “Use of N-dichloroacetyl lysogangliosides for the selective modulation of the expression and function of CD4 determinants on the cell surface” (FIDIA S.p.A., priority 1990, dated 1991)
